Measured values from US8124793B2, “Derivatives of ethylene methanedisulfonate as cancer chemotherapeutic agents” (priority 2007, dated 2012).

What was measured:
Format in all cases: cell-based
NCI-H522 = assay: NCI screen, growth of human tumor cells: Non-Small Cell Lung NCI-H522
How it was run: (§1)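 NCI screening: compound applied to tumor cell lines at a given molar concentration, growth measured as percent. Minimum 60 data points/compound; cancer type noted.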

CCRF-CEM = assay: NCI screen, growth of human tumor cells: Leukemia CCRF-CEM; conditions: CCRF-CEM
How it was run: as §1

U-251 = assay: NCI screen, growth of human tumor cells: CNS Cancer U-251
How it was run: as §1

ACHN = assay: NCI screen, growth of human tumor cells: Renal Cancer ACHN; conditions: ACHN, 10^−4 molar
How it was run: as §1

LOXIMVI = assay: NCI screen, growth of human tumor cells: Melanoma LOXIMVI; conditions: LOXIMVI
How it was run: as §1

COLO205 = assay: NCI screen, growth of human tumor cells: Colon Cancer COLO205
How it was run: as §1

TK-10 = assay: NCI screen, growth of human tumor cells: Renal Cancer TK-10; conditions: TK-10 (Renal Cancer), 10^−4 molar
How it was run: as §1

OVCAR-5 = assay: NCI screen, growth of human tumor cells: Ovarian Cancer OVCAR-5; conditions: OVCAR-5 (Ovarian Cancer), 10^−4 molar
How it was run: as §1

MALME-3M = assay: NCI screen, growth of human tumor cells: Melanoma MALME-3M; conditions: MALME-3M
How it was run: as §1

SNB-19 = assay: NCI screen, growth of human tumor cells: CNS Cancer SNB-19
How it was run: as §1

HT29 = assay: NCI screen, growth of human tumor cells: Colon Cancer HT29; conditions: HT29 (Colon Cancer), 10^−4 molar
How it was run: as §1

UACC-257 = assay: NCI screen, growth of human tumor cells: Melanoma UACC-257; conditions: UACC-257, 10^−4 molar
How it was run: as §1

SF-268 = assay: NCI screen, growth of human tumor cells: CNS Cancer SF-268
How it was run: as §1

HCC-2998 = assay: NCI screen, growth of human tumor cells: HCC-2998 (listed under Non-Small Cell Lung); conditions: HCC-2998, 10^−4 molar
How it was run: as §1

UO-31 = assay: NCI screen, growth of human tumor cells: Renal Cancer UO-31; conditions: UO-31, 10^−4 molar
How it was run: as §1

SK-MEL-5 = assay: NCI screen, growth of human tumor cells: Melanoma SK-MEL-5
How it was run: as §1

K562 = assay: NCI screen, growth of human tumor cells: Leukemia K562; conditions: K562, 10^−4 molar
How it was run: as §1

KM12 = assay: NCI screen, growth of human tumor cells: Colon Cancer KM12; conditions: KM12, 10^−4 molar
How it was run: as §1

SF-539 = assay: NCI screen, growth of human tumor cells: CNS Cancer SF-539
How it was run: as §1

SN12C = assay: NCI screen, growth of human tumor cells: Renal Cancer SN12C; conditions: SN12C, 10^−4 molar
How it was run: as §1

RPMI-8226 = assay: NCI screen, growth of human tumor cells: Leukemia RPMI-8226; conditions: RPMI-8226 (Leukemia), 10^−4 molar
How it was run: as §1

NCI-H322M = assay: NCI screen, growth of human tumor cells: Non-Small Cell Lung NCI-H322M; conditions: NCI-H322M, 10^−4 molar
How it was run: as §1

AS49/ATCC = assay: NCI screen, growth of human tumor cells: Non-Small Cell Lung AS49/ATCC; conditions: A549/ATCC, 10^−4 molar
How it was run: as §1

MDA-MB-435 = assay: NCI screen, growth of human tumor cells: Breast Cancer MDA-MB-435; conditions: MDA-MB-435, 10^−4 molar
How it was run: as §1

CAKI-1 = assay: NCI screen, growth of human tumor cells: Renal Cancer CAKI-1; conditions: CAKI-1 (Renal Cancer), 10^−4 molar
How it was run: as §1

OVCAR-3 = assay: NCI screen, growth of human tumor cells: Ovarian Cancer OVCAR-3; conditions: OVCAR-3, 10^−4 molar
How it was run: as §1

UACC-62 = assay: NCI screen, growth of human tumor cells: Melanoma UACC-62; conditions: UACC-62 (Melanoma), 10^−4 molar
How it was run: as §1

SK-MEL-2 = assay: NCI screen, growth of human tumor cells: Melanoma SK-MEL-2
How it was run: as §1

BT-549 = assay: NCI screen, growth of human tumor cells: Breast Cancer BT-549; conditions: BT-549, 10^−4 molar
How it was run: as §1

HCT-116 = assay: NCI screen, growth of human tumor cells: Colon Cancer HCT-116; conditions: HCT-116, 10^−4 molar
How it was run: as §1

HCT-15 = assay: NCI screen, growth of human tumor cells: Colon Cancer HCT-15; conditions: HCT-15, 10^−4 molar
How it was run: as §1

MCF 7 = assay: NCI screen, growth of human tumor cells: Breast Cancer MCF 7; conditions: MCF7, 10^−4 molar
How it was run: as §1

HOP-62 = assay: NCI screen, growth of human tumor cells: Non-Small Cell Lung HOP-62
How it was run: as §1

786-0 = assay: NCI screen, growth of human tumor cells: Renal Cancer 786-0
How it was run: as §1

SNB-75 = assay: NCI screen, growth of human tumor cells: CNS Cancer SNB-75
How it was run: as §1

CC(=O)C1(CC2=C(C)C(=O)c3ccccc3C2=O)S(=O)(=O)OCCOS1(=O)=O [NSC 701690]
% Growth (NCI-H522; NCI-H522, 10^−4 molar): −100% | % Growth (NCI-H522; NCI-H522, 10^−5 molar): 35% | % Growth (NCI-H522; NCI-H522, 10^−6 molar): 57% | % Growth (NCI-H522; NCI-H522, 10^−7 molar): 77% | % Growth (NCI-H522; NCI-H522, 10^−8 molar): 67% | % Growth (CCRF-CEM; 10^−4 molar): −73% | % Growth (CCRF-CEM; 10^−5 molar): 55% | % Growth (U-251; U251, 10^−4 molar): −100% | % Growth (U-251; U251, 10^−5 molar): 42% | % Growth (U-251; U251, 10^−6 molar): 53% | % Growth (U-251; U251, 10^−7 molar): 46% | % Growth (U-251; U251, 10^−8 molar): 62% | % Growth (ACHN): −77% | % Growth (LOXIMVI; 10^−4 molar): −100% | % Growth (LOXIMVI; 10^−5 molar): 36% | % Growth (COLO205; COLO205, 10^−4 molar): −100% | % Growth (COLO205; COLO205, 10^−5 molar): 60% | % Growth (COLO205; COLO205, 10^−6 molar): 58% | percent of growth of human tumor cells (TK-10): −8% | percent of growth of human tumor cells (OVCAR-5): −53% | % Growth (MALME-3M; 10^−4 molar): −100% | % Growth (MALME-3M; 10^−5 molar): 38% | % Growth (MALME-3M; 10^−6 molar): 43% | % Growth (SNB-19; SNB-19, 10^−4 molar): −47% | % Growth (SNB-19; SNB-19, 10^−5 molar): 53% | percent of growth of human tumor cells (HT29): −25% | % Growth (UACC-257): −83% | % Growth (SF-268; SF-268, 10^−4 molar): −100% | % Growth (SF-268; SF-268, 10^−5 molar): 40% | % Growth (SF-268; SF-268, 10^−6 molar): 65% | % Growth (HCC-2998): −100% | % Growth (UO-31): −92% | % Growth (SK-MEL-5; SK-MEL-5, 10^−4 molar): −100% | % Growth (SK-MEL-5; SK-MEL-5, 10^−5 molar): 58% | % Growth (K562): −66% | % Growth (KM12): −71% | % Growth (SF-539; SF-539, 10^−4 molar): −100% | % Growth (SF-539; SF-539, 10^−5 molar): 44% | % Growth (SN12C): −100% | percent of growth of human tumor cells (RPMI-8226): −18% | % Growth (NCI-H322M): −100% | % Growth (AS49/ATCC): −97% | % Growth (MDA-MB-435): −95% | percent of growth of human tumor cells (CAKI-1): −53% | % Growth (OVCAR-3): −73% | percent of growth of human tumor cells (UACC-62): −57% | % Growth (SK-MEL-2; SK-MEL-2, 10^−4 molar): −73% | % Growth (SK-MEL-2; SK-MEL-2, 10^−5 molar): 7% | % Growth (SK-MEL-2; SK-MEL-2, 10^−6 molar): −2% | % Growth (SK-MEL-2; SK-MEL-2, 10^−7 molar): −8% | % Growth (SK-MEL-2; SK-MEL-2, 10^−8 molar): −3% | % Growth (BT-549): −100% | % Growth (HCT-116): −100% | % Growth (HCT-15): −100% | % Growth (MCF 7): −100% | % Growth (HOP-62; HOP-62, 10^−4 molar): −92% | % Growth (HOP-62; HOP-62, 10^−5 molar): 52% | % Growth (786-0; 786-0, 10^−4 molar): −100% | % Growth (786-0; 786-0, 10^−5 molar): 36% | % Growth (SNB-75; SNB-75, 10^−4 molar): −100% | % Growth (SNB-75; SNB-75, 10^−5 molar): 45%
